Assay results as given in PMC13534789, “Molecular Glue Degraders Enhance CAPRIN1‐Dependent Lysosomal Degradation of APP and Reduce Amyloid β in Alzheimer's Disease” (Advanced Science, 2026).
Converted amounts (≈) assume the structure as drawn.

Tests used:
[1] = biological target: APP (Homo sapiens, UniProt P05067); experiment: Western blot of APP in iPSC-derived neurons; assay type: cell-based; set-up: endogenous in cells; host or cells: iPSC-derived neurons (AG27606-Ns, sAD2.3-Ns and others); conditions: for APP-degrading activity after Bafilomycin A1 pretreatment: Baf A1 20 nM, AG27606-Ns, sAD2.3-Ns, HEK-APP695 cells; for APP-degrading activity after Bafilomycin A1 pretreatment / APP-degrading activity after MG132 pretreatment: 30 min, then compound 10 µM, 24 h; for APP-degrading activity after MG132 pretreatment: MG132 5 µM
[2] = tested on: APP trafficking through the endosomal‐lysosomal pathway; experiment: Confocal colocalization of APP / CAPRIN1 with organelle markers; assay type: cell-based, human; conditions: for APP–LAMP1 colocalization: AD iPSC-Ns
Description: Cells were grown on glass cover slips coated with 1% Matrigel and treated with drugs. Cells were washed, fixed, permeabilized, blocked, and incubated in primary antibodies diluted in blocking solution (1% v/v BSA solution/5% Goat serum in PBS containing 0.1% Triton X‐100) overnight at 4°C. The cells were washed three times with PBS and incubated in secondary antibodies in a blocking solution for 1 h at room temperature, then washed with PBS, followed by HOECHST staining (Invitrogen) for 5 min, and washed with PBS. The glass coverslips were put on a slide‐in mounting medium ([…]), and the edges were sealed with coverslip sealant (BIOTIUM). Image data were captured and processed with a confocal microscope system (Olympus Fluoview FV1000 or Leica DIVE) and the ImageJ program. For 3D organoids staining, organoids were fixed in 10% formalin overnight at room temperature, followed by incubation in 30% sucrose solution overnight at room temperature, embedded in optimal cutting temperature compound (OCT, FisherScientific), and kept at ‐80°C overnight. Frozen samples were sectioned at 10 µm using a cryostat (Leica) and mounted on microscope slides (Fisherbrand superfrost plus, FisherScientific). Before immunolabeling, sections were rinsed in PBS for 5 min, permeabilized for 30 min in PBS containing 0.3% Triton‐X 100, blocked for 1 h in PBS containing 5% BSA and 0.1% Triton‐X 100, and incubated with primary antibodies diluted in the same blocking solution. Then, secondary staining, mounting, and imaging were followed.
ImageJ (Fiji) program (NIH, Bethesda, MD, USA) was used o analyze images. Pearson's correlation coefficients were calculated with the JACoP plugin from two channels (BIOP). For colocalization/trafficking analysis with organelles in iPSC‐Ns, HEK293 cells, and 3D organoids, APP or CAPRIN1 with organelles signals were segmented using a trainable weka segmentation plugin in Fiji as previously described. Colocalized areas were calculated in the image calculator tool ([…] function) to get an overlayed area for the segmented signals, followed by using the analyze particle tool in Fiji to determine by > 1‐pixel overlapping of the segmented signal. To determine the fluorescence intensity, the corrected total cell fluorescence (CTCF) was used using the formula: CTCF = Integrated Density—(Area of selected cell x Mean fluorescence of background readings), as described previously. Bright‐field images of immunoperoxidase‐stained and Thioflavin S‐stained brain sections were exported as 16‐bit RGB TIFF files and analyzed using ImageJ (Fiji), following previously established protocols. To isolate the DAB signal for quantification, color deconvolution was performed using the “H DAB” setting in the Color Deconvolution plugin in ImageJ. The resulting “Colour_2” image, corresponding to the DAB chromogen, was converted to 8‐bit grayscale for further analysis. Manual thresholding was applied to the DAB channel using the threshold adjustment tool in ImageJ. […] Regions of interest (ROIs), specifically the subiculum, hippocampus, and cortex, were manually delineated based on anatomical landmarks and saved using the ROI Manager. For each ROI, the DAB‐positive area was quantified using the Analyze Particles plugin with default particle size settings. The percentage of DAB‐positive area was calculated as the ratio of the DAB‐positive area to the total area of each ROI.

[3] = Kinetic solubility assay; assay type: physicochemical; conditions: for solubility at 24 h: aqueous buffer, kinetic from dmso stock, phosphate buffer pH 7.4, 24 h, room temperature, LC-MS, read-out: Solubility PBS
Description: 10 µL of 10 mM DMSO stock solution of test and control compounds was added to 990 µL phosphate buffer with pH 7.4. […] Samples were centrifuged, and the supernatant was transferred into a filter plate. Then, the filtrates were quantified by an LC‐MS system to get solubility results.

[4] = biological target: T1, APP695‐HiBiT (Homo sapiens, UniProt P05067+Q14444); experiment: APP695-HiBiT luminescence assay in HEK293 cells; assay type: cell-based
T1 construct: expressed in transfected cells; host or cells: HEK293, lentiviral transduction, hygromycin-selected single clones (#3, #9)
Text: We previously reported CAPRIN1‐targeted molecular degraders that bind to CAPRIN1 and F‐box protein 42 (FBXO42), promoting FBXO42‐mediated proteasomal degradation of small ubiquitin‐related modifier 1 (SUMO1), an oncoprotein, in human cancers. CAPRIN1 is a neuronal RNA‐binding protein involved in neuronal development and neurodegeneration. CAPRIN1 was reported to be a binding partner of APP [28]. Therefore, we thought to investigate whether CAPRIN1‐targeted degraders could promote APP degradation in APP‐expressing cell models. To establish screening models, we tagged wild‐type APP695 (APP695), the predominant neuronal isoform, with the small HiBiT tag (APP695‐HiBiT) and expressed APP695‐HiBiT in HEK293 cells. Cell lysates were analyzed using a luminescence‐based assay of HiBiT‐tagged protein [30], identifying clone #3 and #9 with robust APP695‐HiBiT expression (Figure S1A). Western blotting and ELISA confirmed intracellular expression of APP695 and extracellular release of Aβ42 in these clones (Figure S1B,C).
HEK293 cells were purchased from the American Type Culture Collection (ATCC). […] Once expanded, clones were analyzed by ELISA for amyloid beta 42 (Aβ42), western blot for APP expression, and Hibit‐lytic assay (Promega). […]

Chain of APP (P05067 18-695 isoform P05067-4): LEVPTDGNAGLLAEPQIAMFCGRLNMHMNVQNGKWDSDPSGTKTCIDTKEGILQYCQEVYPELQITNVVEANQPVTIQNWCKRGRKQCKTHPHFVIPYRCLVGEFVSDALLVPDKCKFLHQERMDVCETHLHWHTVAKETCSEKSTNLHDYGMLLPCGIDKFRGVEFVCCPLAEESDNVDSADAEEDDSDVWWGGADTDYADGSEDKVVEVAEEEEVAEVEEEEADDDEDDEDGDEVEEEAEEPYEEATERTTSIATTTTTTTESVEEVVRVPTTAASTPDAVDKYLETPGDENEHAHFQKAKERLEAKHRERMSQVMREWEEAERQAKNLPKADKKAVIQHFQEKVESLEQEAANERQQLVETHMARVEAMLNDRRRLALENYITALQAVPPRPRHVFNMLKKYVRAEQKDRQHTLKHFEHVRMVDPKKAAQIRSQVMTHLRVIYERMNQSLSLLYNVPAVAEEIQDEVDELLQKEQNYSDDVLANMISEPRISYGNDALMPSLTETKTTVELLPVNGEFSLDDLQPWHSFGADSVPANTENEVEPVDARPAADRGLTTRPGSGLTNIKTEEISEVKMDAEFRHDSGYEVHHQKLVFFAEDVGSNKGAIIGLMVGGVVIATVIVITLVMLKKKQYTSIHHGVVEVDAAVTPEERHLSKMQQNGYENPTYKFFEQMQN
Chain of APP (Q14444 whole entry partner): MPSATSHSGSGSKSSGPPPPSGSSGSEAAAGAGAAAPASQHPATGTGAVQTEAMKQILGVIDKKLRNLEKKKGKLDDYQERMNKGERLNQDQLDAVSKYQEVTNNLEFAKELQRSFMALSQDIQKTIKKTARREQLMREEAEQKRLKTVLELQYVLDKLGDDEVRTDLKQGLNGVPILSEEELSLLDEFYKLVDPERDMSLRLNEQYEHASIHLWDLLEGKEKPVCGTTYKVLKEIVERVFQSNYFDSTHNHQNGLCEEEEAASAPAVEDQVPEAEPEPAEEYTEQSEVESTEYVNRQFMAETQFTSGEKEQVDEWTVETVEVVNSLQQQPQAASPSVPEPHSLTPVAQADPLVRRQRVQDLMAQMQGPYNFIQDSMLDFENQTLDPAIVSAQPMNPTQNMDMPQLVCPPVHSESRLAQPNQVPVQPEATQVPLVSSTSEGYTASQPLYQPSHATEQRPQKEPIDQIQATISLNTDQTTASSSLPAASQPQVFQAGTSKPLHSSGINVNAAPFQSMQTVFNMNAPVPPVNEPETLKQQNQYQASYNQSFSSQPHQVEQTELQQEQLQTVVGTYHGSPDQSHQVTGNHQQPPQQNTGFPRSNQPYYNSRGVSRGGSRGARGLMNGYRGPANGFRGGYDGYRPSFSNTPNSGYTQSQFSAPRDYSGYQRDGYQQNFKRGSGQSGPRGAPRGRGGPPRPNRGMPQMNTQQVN
T1 sequence (P05067 18-695 isoform P05067-4 limits assumed): as the sequence (P05067 18-695 isoform P05067-4) above
T1 sequence (Q14444 2-709 limits assumed): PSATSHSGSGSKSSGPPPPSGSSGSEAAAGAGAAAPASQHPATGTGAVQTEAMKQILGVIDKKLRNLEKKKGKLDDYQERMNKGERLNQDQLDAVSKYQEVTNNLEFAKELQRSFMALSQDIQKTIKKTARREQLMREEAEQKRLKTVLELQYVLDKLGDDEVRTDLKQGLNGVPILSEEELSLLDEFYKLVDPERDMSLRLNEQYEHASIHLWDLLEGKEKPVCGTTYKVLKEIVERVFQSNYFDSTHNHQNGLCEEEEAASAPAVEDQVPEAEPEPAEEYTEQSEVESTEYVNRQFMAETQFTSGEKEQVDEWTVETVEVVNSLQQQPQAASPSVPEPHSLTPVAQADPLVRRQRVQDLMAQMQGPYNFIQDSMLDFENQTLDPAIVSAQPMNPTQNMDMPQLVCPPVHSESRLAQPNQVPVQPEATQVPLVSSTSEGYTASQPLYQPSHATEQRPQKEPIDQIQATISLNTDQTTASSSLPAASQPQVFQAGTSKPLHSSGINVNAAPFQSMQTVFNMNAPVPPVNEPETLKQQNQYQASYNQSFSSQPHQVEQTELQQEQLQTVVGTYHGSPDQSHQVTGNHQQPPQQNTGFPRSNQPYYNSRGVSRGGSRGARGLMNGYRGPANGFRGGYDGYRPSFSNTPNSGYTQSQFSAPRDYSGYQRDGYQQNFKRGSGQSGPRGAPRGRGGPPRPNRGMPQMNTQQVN

Structure (SMILES) | APP-degrading activity after Bafilomycin A1 pretreatment [1] | APP-degrading activity after MG132 pretreatment [1] | Intracellular APP (western blot) ([1]; SAD2.3-Ns and AG27606-Ns, 72 h, BI 10 µM) | APP–LAMP1 colocalization ([2]; 10 µM, 24 h) | APP colocalization with EEA1, Rab7 and LAMP1 ([2]; AG27606-Ns, 10 µM, 0, 3 or 7 h) | CAPRIN1 colocalization with Rab7 and LAMP1 ([2]; AG27606-Ns, 10 µM, 0, 3 or 7 h) | Aqueous solubility by LC-MS, in words [3] | solubility at 24 h [3] [µg/mL] | APP695-HiBiT levels in library screen ([4]; 10 µM, 24 h, APP695-HiBiT clones, vs DMSO) | Colocalization of APP and CAPRIN1 with GGA1 ([2]; AG27606 neurons, 10 µM, 24 h) | Colocalization of APP and CAPRIN1 with SorLA ([2]; AG27606 neurons, 10 µM, 24 h) | APP695-HiBiT levels, dose and time course ([4]; HEK-APP695-HiBiT cells)
N#Cc1cccc(NC(=O)Nc2nc3ccc(C(=O)N4CCOCC4)cc3s2)c1 [compound 0043] | abolished | no effect | reduced intracellular APP | increased APP–LAMP1 colocalization | significantly increased APP colocalization with all three markers | increase its colocalization with both markers | poor aqueous solubility | 0.06 (≈ 0.147 µM) | more effective | – | – | –
COc1cccc(NC(=O)Nc2nc3ccc(C(=O)N4CCOCC4)cc3s2)c1 [compound 0152] | abolished | no effect | – | increased APP–LAMP1 colocalization | – | – | significantly improved aqueous solubility | 0.4 (≈ 0.97 µM) | – | enhanced the colocalization of both APP and CAPRIN1 with GGA1 | reduced the colocalization of both APP and CAPRIN1 with SorLA | dose‐ and time‐dependent reduction in APP695‐HiBiT levels
